Data from PubChem BioAssay AID732 (Emory University Molecular Libraries Screening Center, 2007).
Where “and” joins values, the source holds several entries; their conditions need not be identical. Identical values can stand only once. Calls of active or inactive are those of the source. How the calls were made is not given here.

These compounds were tested on in vivo angiogenesis, blood vessel count (assay: reduction of blood vessel formation in vivo – HTS, in vivo study (AID 732;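 further: zebrafish embryos dosed at one day post fertilization; 0% = reference inhibitor and 100% = plate mean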)). Settings: stronger effect = lower value;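 tested at 30 µM in the well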.
With `CC(C)CN(C)c1nc(N)c(C(=O)N=C(N)N)nc1Cl` the vessel count % control was 101% (inactive).
With `CCOC(=O)C1=C(C)NC(C)=C(C(=O)OC)C1c1cccc(Cl)c1Cl` (stereo unspecified) the vessel count % control was 56% (inactive).
For `CCCN1CCc2cc(O)cc3c2[C@H]1Cc1ccc(O)c(O)c1-3`, the vessel count % control was 114% (inactive).
With `OC[C@H]1O[C@@H](n2cnc3c(NC4CCCCC4)ncnc32)[C@H](O)[C@@H]1O` the vessel count % control was 104% (inactive).
For `C=CCN1CC[C@]23c4c5ccc(O)c4O[C@@H]2/C(=N/N=C2\CC[C@@]4(O)C6Cc7ccc(O)c8c7[C@@]4(CCN6CC=C)[C@@H]2O8)CC[C@@]3(O)C1C5`, the vessel count % control was 100% (inactive).
In the case of `CCCCCCCCCCCCCCCCCC(=O)OC(CC(=O)O)C[N+](C)(C)C` (stereo unspecified), the vessel count % control is reported as 71.9% (inactive).
In the case of `O=C1CCCN1CC#CCN1CCCC1`, the vessel count % control is reported as 99.6% (inactive).
With `C[C@@H]1O[C@H](C[N+](C)(C)C)CS1` the vessel count % control was 89.1% (inactive).
`FC(F)(F)c1ccccc1-n1ccnc1` was tested, and the vessel count % control was 93.4% (inactive).
For `CO/N=C(\C(=O)N[C@@H]1C(=O)N2C(C(=O)O)=C(CSc3nc(=O)c(O)nn3C)CSC12)c1csc(N)n1` (stereo partly specified), the vessel count % control was 117% (inactive).
For `CN1C2CCC1CC(OC(=O)c1cc(Cl)cc(Cl)c1)C2` (stereo unspecified), the vessel count % control was 77% (inactive).
`C=CCN1CC[C@]23c4c5ccc(O)c4O[C@H]2/C(=N/NC(=O)c2ccccc2)CC[C@@]3(O)[C@H]1C5` was tested, and the vessel count % control was 120% (inactive).
With `CC(=O)N[C@H](C(=O)O)C(C)(C)SN=O` the vessel count % control was 94.3% (inactive).
For `N=C(N)SCCN`, the vessel count % control was 110% (inactive).
`CCN(CC)CCNC(=O)c1cc(Cl)c(N)cc1OC` was tested, and the vessel count % control was 99.4% (inactive).
For `CN(C)CCCN1c2ccccc2Sc2ccc(Cl)cc21`, the vessel count % control was 84.3% (inactive).
For `Cc1cc(C)c(NC(=O)C[C@H](CC(=O)O)c2cccc3ccccc23)c(C(=O)N2CCC3(CCCC3)CC2)c1`, the vessel count % control was 108% (inactive).
For `COc1cc(OC)c(/C=C2/C(=O)Nc3ccccc32)c(OC)c1`, the vessel count % control was 44.4% (inactive).
In the case of `Ic1ccccc1CNC1C2CCN(CC2)C1C(c1ccccc1)c1ccccc1` (stereo unspecified), the vessel count % control is reported as 103% (inactive).
With `NCCC1CCCC(CCN)N1` (stereo unspecified) the vessel count % control was 115% (inactive).
For `N#CC(=Cc1ccc(O)c(O)c1)C(N)=S`, the vessel count % control was 118% (inactive).
`CC1(C)CCC2=C(O1)c1ccccc1C(=O)C2=O` was tested, and the vessel count % control was 65.8% (inactive).
`COc1ccc2c(c1OC)C(=O)O[C@@H]2[C@H]1c2c(cc3c(c2OC)OCO3)CCN1C` was tested, and the vessel count % control was 127% (inactive).
`CSc1ccc(C(=O)c2[nH]c(=O)[nH]c2C)cc1` was tested, and the vessel count % control was 76.7% (inactive).
In the case of `COc1ccccc1N1CCN(CCCCNS(=O)(=O)c2cccc3c(N(C)C)cccc23)CC1`, the vessel count % control is reported as 67.5% (inactive).
For `CC(=O)[C@H]1CC[C@H]2[C@@H]3CC[C@H]4C[C@H](O)CC[C@]4(C)[C@H]3C(=O)C[C@]12C`, the vessel count % control was 111% (inactive).
With `CN(C)CCC(c1ccccc1)c1ccccn1` (stereo unspecified) the vessel count % control was 109% (inactive).
For `CNC(=O)[C@H]1O[C@@H](n2cnc3c(N)ncnc32)C(O)[C@H]1O` (stereo partly specified), the vessel count % control was 118% (inactive).
In the case of `O=S(=O)(c1cccc2c(Cl)cccc12)N1CCCNCC1`, the vessel count % control is reported as 109% (inactive).
For `Clc1ccc(N2CC3CCC(C2)N3)nn1`, the vessel count % control was 106% (inactive).
With `NC(=O)c1ccc(OCC(O)CN2CC=C(c3ccc(F)cc3)CC2)cc1` (stereo unspecified) the vessel count % control was 79.7% (inactive).
`CC1CCN(CC[C@H]2CCCN2S(=O)(=O)c2cccc(O)c2)CC1` was tested, and the vessel count % control was 95.5% (inactive).
`Oc1ccc2c3c1O[C@H]1[C@@H](O)CC[C@@]4(O)C(C2)N(CC2CCC2)CCC314` (stereo partly specified) was tested, and the vessel count % control was 81.2% (inactive).
In the case of `Cc1ccc(=O)n(-c2ccccc2)c1`, the vessel count % control is reported as 92.7% (inactive).
For `O=Nc1c(-c2c(O)[nH]c3c(Cl)cc(Cl)cc23)[nH]c2ccc(Br)cc12`, the vessel count % control was 126% (inactive).
`NNc1nncc2ccccc12` was tested, and the vessel count % control was 92.2% (inactive).
For `CN(C)CCOC(=O)COc1ccc(Cl)cc1`, the vessel count % control was 102% (inactive).
In the case of `CC(N)=NCc1cccc(CN)c1`, the vessel count % control is reported as 104% (inactive).
For `N=C(N)c1ccccc1`, the vessel count % control was 110% (inactive).
`O=C1Cc2c([nH]c3ccc(Br)cc23)-c2ccccc2N1` was tested, and the vessel count % control was 101% (inactive).
In the case of `C#CCn1c(=O)c2c(ncn2C)n(C)c1=O`, the vessel count % control is reported as 103% (inactive).
In the case of `COc1ccc2c(c1)CCC1C2CC[C@@]2(C)C1CC[C@@H]2NCCCCCCN1C(=O)C=CC1=O` (stereo partly specified), the vessel count % control is reported as 0% (inactive).
With `C=C1C(=O)O[C@@H]2[C@H]3O[C@]3(C)CCC=C(C)CC[C@@H]12` the vessel count % control was 92.5% (inactive).
For `C[N+](C)(C)CCO`, the vessel count % control was 96.9% (inactive).
`C[C@H](O)C(=O)C1=Nc2c(nc(N)[nH]c2=O)NC1` was tested, and the vessel count % control was 117% (inactive).
With `CC(C[N+](C)(C)C)OC(N)=O` (stereo unspecified) the vessel count % control was 91.7% (inactive).
For `Cn1c(=O)c2[nH]cnc2n(C)c1=O`, the vessel count % control was 105% (inactive).
With `N[C@H](C(=O)O)c1cc(O)cc(O)c1` the vessel count % control was 108% (inactive).
With `CN(C)CC/C=C1\c2ccccc2COc2ccccc21` the vessel count % control was 97.3% (inactive).
In the case of `CCn1ccnc1CC1COc2ccccc2O1` (stereo unspecified), the vessel count % control is reported as 100% (inactive).
For `COCC(=O)O[C@]1(CCN(C)CCCc2nc3ccccc3[nH]2)CCc2cc(F)ccc2[C@@H]1C(C)C`, the vessel count % control was 90.9% (inactive).
For `CC(=O)O[C@H]1CC2(C)[C@@H](C[C@@H](O)[C@H]3[C@@]4(C)CC[C@@H](O)[C@@H](C)[C@@H]4CC[C@@]32C)C1=C(CCC=C(C)C)C(=O)O` (stereo partly specified), the vessel count % control was 100% (inactive).
In the case of `NC(=O)c1cc[n+](CC2=C(C(=O)O)N3C(=O)[C@@H](NC(=O)[C@@H](c4ccccc4)S(=O)(=O)[O-])[C@H]3SC2)cc1`, the vessel count % control is reported as 99.9% (inactive).
`COc1ccccc1N1CCNCC1` was tested, and the vessel count % control was 96.7% (inactive).
In the case of `Brc1ccc([C@H]2CN3CCSC3=N2)cc1`, the vessel count % control is reported as 94.7% (inactive).
With `CCn1cc(C(=O)O)c(=O)c2ccc(Cc3ccccc3)nc21` the vessel count % control was 108% (inactive).
With `NNC(=O)c1ccc(O)cc1` the vessel count % control was 97.5% (inactive).
In the case of `NC(=S)NCCCC(N)C(=O)O` (stereo unspecified), the vessel count % control is reported as 119% (inactive).
For `CC(=O)N1CCN(c2ccc(OC[C@H]3CO[C@](Cn4ccnc4)(c4ccc(Cl)cc4Cl)O3)cc2)CC1`, the vessel count % control was 113% (inactive).
In the case of `Nc1ccc(CCN2CCN(c3cccc(C(F)(F)F)c3)CC2)cc1`, the vessel count % control is reported as 96.3% (inactive).
For `COc1cc([C@@H]2c3cc4c(cc3[C@H](O)C3COC(=O)[C@@H]32)OCO4)cc(OC)c1OC` (stereo partly specified), the vessel count % control was 88.6% (inactive).
`N.N.O=C(O)C1(C(=O)O)CCC1.[Pt+2]` was tested, and the vessel count % control was 105% (inactive).
For `COc1cc(C[C@@H](C)N)c(OC)cc1I`, the vessel count % control was 93.2% (inactive).
`Cc1cccc(C#Cc2ccccc2)n1` was tested, and the vessel count % control was 92.1% (inactive).
With `O=C(O)c1cc2cc(F)ccc2[nH]1` the vessel count % control was 104% (inactive).
In the case of `CCCCCCCCCCCCCCCCCCNC(=O)OCC(COP(=O)([O-])OCC[n+]1ccsc1)OC` (stereo unspecified), the vessel count % control is reported as 92% (inactive).
`CC(C)OC(=O)C(C)(C)Oc1ccc(C(=O)c2ccc(Cl)cc2)cc1` was tested, and the vessel count % control was 89.2% (inactive).
For `O=C(O)CN(CCN(CC(=O)O)CC(=O)O)CCN(CC(=O)O)CC(=O)O`, the vessel count % control was 0% (inactive).
For `O=[N+]([O-])c1cccc2cn[nH]c12`, the vessel count % control was 136% (inactive).
For `Nc1ccn([C@H]2CC[C@@H](CO)O2)c(=O)n1`, the vessel count % control was 103% (inactive).
In the case of `COc1cc(C=C(C#N)C#N)cc(O)c1O`, the vessel count % control is reported as 114% (inactive).
For `O=C1C(c2c(O)[nH]c3ccccc23)=Nc2ccc(Br)cc21`, the vessel count % control was 108% (inactive).
`C/C=C(/C)C(=O)O[C@H]1C(C)=C2[C@H]([C@@H]1OC(=O)CCCCCCC)[C@@](C)(OC(C)=O)C[C@H](OC(=O)CCC)[C@@]1(O)[C@H]2OC(=O)[C@@]1(C)O` was tested, and the vessel count % control was 0% (inactive).
With `COc1ccc(C(=O)NCc2cccnc2)cc1C(=O)NCc1cccnc1` the vessel count % control was 109% (inactive).
`Clc1ccc(C(c2ccc(Cl)cc2)n2cc[n+](CC(OCc3ccc(Cl)cc3Cl)c3ccc(Cl)cc3Cl)c2)cc1` (stereo unspecified) was tested, and the vessel count % control was 0% (inactive).
With `CCCCCCCCCCCCCCCC(=O)OC(CC(=O)O)C[N+](C)(C)C` (stereo unspecified) the vessel count % control was 92% (inactive).
In the case of `O=c1[nH]ccc2c(O)cccc12`, the vessel count % control is reported as 0% (inactive).
`Nc1nc(OCc2ccccc2)c2[nH]cnc2n1` was tested, and the vessel count % control was 91% (inactive).
With `CN(C)C(N)=NCCC[C@H](N)C(=O)O` the vessel count % control was 93.3% (inactive).
In the case of `O=C1OC(=O)C2C3CCC(O3)C12` (stereo unspecified), the vessel count % control is reported as 111% (inactive).
With `O=C1C(c2c(O)[nH]c3c(Cl)cc(Cl)cc23)=Nc2ccc(Br)cc21` the vessel count % control was 123% (inactive).
`CCCN(CCC)C1CCc2cccc(O)c2C1` (stereo unspecified) was tested, and the vessel count % control was 111% (inactive).
With `CNC(=O)Oc1ccc2c(c1)[C@]1(C)CCN(C)[C@@H]1N2C` the vessel count % control was 120% (inactive).
For `NS(=O)(=O)c1cccc2c1c([N+](=O)[O-])cc1nc(O)c(O)nc12`, the vessel count % control was 111% (inactive).
For `CCCn1c(=O)c2[nH]c(-c3ccc(OCC(=O)Nc4ccc(C#N)cc4)cc3)nc2n(CCC)c1=O`, the vessel count % control was 84.9% (inactive).
`CCCN1CC[C@@H]2c3cc(O)ccc3CC[C@@H]21` was tested, and the vessel count % control was 88.5% (inactive) and 103% (inactive).
`CC(=O)Nc1nnc(S(N)(=O)=O)s1` was tested, and the vessel count % control was 78.2% (inactive).
With `CS(=N)(=O)CC[C@H](N)C(=O)O` (stereo partly specified) the vessel count % control was 99.4% (inactive).
For `CC#C[C@]1(O)CC[C@H]2[C@@H]3CCC4=CC(=O)CCC4=C3[C@@H](c3ccc(N(C)C)cc3)C[C@@]21C`, the vessel count % control was 106% (inactive).
With `CCCn1c(=O)c2[nH]c(-c3ccc(OCC(=O)NCCN)cc3)nc2n(CCC)c1=O` the vessel count % control was 99.8% (inactive).
`CCCC(C(=O)OCCN(CC)CC)(c1ccccc1)c1ccccc1` was tested, and the vessel count % control was 98% (inactive).
For `NC(=NCCC[C@H](N)C(=O)O)NO`, the vessel count % control was 99% (inactive).
With `CN(C)CCCN1c2ccccc2Sc2ccc(C(F)(F)F)cc21` the vessel count % control was 105% (inactive).
`CC(C)Cn1c(=O)n(C)c(=O)c2[nH]cnc21` was tested, and the vessel count % control was 78.7% (inactive).
`CC[C@@H]1Cc2cc(O)ccc2C2=C1c1ccc(O)cc1C[C@H]2CC` was tested, and the vessel count % control was 99.8% (inactive).
`O=c1[nH]c2ccccc2n1CCCN1CCN(C(c2ccccc2)c2ccccc2)CC1` was tested, and the vessel count % control was 120% (inactive).
